Legend:
Format in all cases: cell-based
CNS SF268 = test: human cancer cell growth inhibition, sulforhodamine B assay; conditions: 48 hours; for human cancer cell line growth inhibition (GI50) CNS SF268: Table Ia; for Human cancer cell line inhibition (GI50) CNS SF268: Table I
Method: (§1) Inhibition of human cancer cell growth was assessed using the National Cancer Institute's standard sulforhodamine B assay. After 48 hours, the plates were fixed with trichloracetic acid, stained with sulforhodamine B and read with an automated microplate reader. […] Inhibition of the mouse leukemia P388 cells was assessed in a 10% horse serum/Fisher medium soution for 24 hours, followed by a 48 hour incubation with serial dilutions of the compounds. Cell growth inhibition (ED50) was then calculated using a Z1 Becleman/Coulter particle counter.

Breast MCF-7 = test: as above; conditions: 48 hours; for human cancer cell line growth inhibition (GI50) Breast MCF-7: Table Ia; for Human cancer cell line inhibition (GI50) Breast adn MCF-7: Table I
Method: as §1

Prostate DU-145 = test: as above; conditions: 48 hours; for human cancer cell line growth inhibition (GI50) Prostate DU-145: Table Ia; for Human cancer cell line inhibition (GI50) Prostate DU-145: Table I
Method: as §1

Pancreas BXPC-3 = test: as above; conditions: 48 hours; for human cancer cell line growth inhibition (GI50) Pancreas BXPC-3: Table Ia; for Human cancer cell line inhibition (GI50) Pancreas-a BXPC-3: Table I
Method: as §1

Colon KM20L2 = test: as above; conditions: 48 hours; for human cancer cell line growth inhibition (GI50) Colon KM20L2: Table Ia; for Human cancer cell line inhibition (GI50) Colon KM20L2: Table I
Method: as §1

Lung-NSC NCI-H460 = test: as above; conditions: 48 hours; for human cancer cell line growth inhibition (GI50) Lung-NSC NCI-H460: Table Ia; for Human cancer cell line inhibition (GI50) Lung-NSC NCI-H460: Table I
Method: as §1

Cryptococcus neoformans = test: reference broth microdilution susceptibility assay; conditions: Table VII; ATCC 90112
Text: (§2) The halocombstatins of the present invention appear to also have antimicrobial properties. More specifically, they appear to have antifungal and/or antibacterial properties. Antimicrobial evaluation of the halocombstatins involved susceptibility testing performed by the reference broth microdilution assay. The antimicrobial activities of the halocombstatins were very similar, targeting Gram-positive bacteria and the pathogenic fungi Cryptococcus neoformans, and results are shown in Table III.
(§3) (See Pettit, G. R., et al., Antineoplastic Agents 463. Synthesis of Combretastatin A-3 Diphosphates, Anticancer Drug Design 2000, 15, 397-404.) To determine the antimicrobial activity of the present compounds, susceptibility testing was performed by the reference broth microdilution assay. (See National Committee for Clinical Laboratory Standards. Methods for Dilution Antimicrobial Susceptibility Tests for Bacteria that Grow Aerobically. Approved Standard M7-A5. Wayne, P A: NCCLS, 2000. National Committee for Clinical Laboratory Standards. Reference Method for Broth Dilution Antifungal Susceptibility Testing of Yeasts. Aproved Standard M27-A. Wayne, P A: NCCLS, 1997.) The antimicrobial activities of the halocombretastatins of the present invention were very similar, targeting Gram-positive bacteria and Cryptococcus neoformans. This is illustrated in further detail in Table III. Thus, several of the novel compounds of the present invention appear to have potential as antimicrobial agents, such as antifingals and antibacterials.

[1] = test system: Stenotrophomonas maltophilia; test: reference broth microdilution susceptibility assay; conditions: Table VII; ATCC 13637
Text: as §2, §3

Streptococcus pneumoniae = test: reference broth microdilution susceptibility assay; conditions: Table VII; ATCC 6303
Text: as §2, §3

Enterobacter cloacae = test: reference broth microdilution susceptibility assay; conditions: Table VII; ATCC 13047
Text: as §2, §3

Neisseria gonorrhoeae = test: reference broth microdilution susceptibility assay; conditions: Table VII; ATCC 49226
Text: as §2, §3

Candida albicans = test: reference broth microdilution susceptibility assay; conditions: Table VII; ATCC 90028
Text: as §2, §3

Escherichia coli = test: reference broth microdilution susceptibility assay; conditions: Table VII; ATCC 25922
Text: as §2, §3

Enterococcus faecalis = test: reference broth microdilution susceptibility assay; conditions: Table VII; ATCC 29212
Text: as §2, §3

Staphylococcus aureus = test: reference broth microdilution susceptibility assay; conditions: Table VII; ATCC 29213
Text: as §2, §3

Micrococcus luteus = test: reference broth microdilution susceptibility assay; conditions: Table VII; Presque Isle 456
Text: as §2, §3

Compound	human cancer cell line growth inhibition (GI50) CNS SF268 (CNS SF268)	human cancer cell line growth inhibition (GI50) Breast MCF-7 (Breast MCF-7)	human cancer cell line growth inhibition (GI50) Prostate DU-145 (Prostate DU-145)	human cancer cell line growth inhibition (GI50) Pancreas BXPC-3 (Pancreas BXPC-3)	human cancer cell line growth inhibition (GI50) Colon KM20L2 (Colon KM20L2)	human cancer cell line growth inhibition (GI50) Lung-NSC NCI-H460 (Lung-NSC NCI-H460)	Human cancer cell line inhibition (GI50) CNS SF268 (CNS SF268)	Human cancer cell line inhibition (GI50) Colon KM20L2 (Colon KM20L2)	Human cancer cell line inhibition (GI50) Lung-NSC NCI-H460 (Lung-NSC NCI-H460)	Human cancer cell line inhibition (GI50) Breast adn MCF-7 (Breast MCF-7)	Human cancer cell line inhibition (GI50) Prostate DU-145 (Prostate DU-145)	Human cancer cell line inhibition (GI50) Pancreas-a BXPC-3 (Pancreas BXPC-3)	other results
COC(=O)CN.COC(=O)CN.COc1ccc(/C=C\c2cc(I)c(OC)c(I)c2)cc1OP(=O)(O)O [X]	0.054 µg/mL	0.10 µg/mL	0.023 µg/mL	0.36 µg/mL	>1 µg/mL	0.030 µg/mL							
COc1ccc(/C=C\c2cc(I)c(OC)c(I)c2)cc1OP(=O)([O-])[O-].[Na+].[Na+] [Compound 0]													Range of MIC, Cryptococcus neoformans (Cryptococcus neoformans): * (no inhibition at 64 μg/ml); Range of MIC, Stenotrophomonas maltophilia [1]: * (no inhibition at 64 μg/ml); Range of MIC, Streptococcus pneumoniae (Streptococcus pneumoniae): * (no inhibition at 64 μg/ml); Range of MIC, Enterobacter cloacae (Enterobacter cloacae): * (no inhibition at 64 μg/ml); Range of MIC, Neisseria gonorrhoeae (Neisseria gonorrhoeae): 32 to 64 µg/mL; Range of MIC, Candida albicans (Candida albicans): * (no inhibition at 64 μg/ml); Range of MIC, Escherichia coli (Escherichia coli): * (no inhibition at 64 μg/ml); Range of MIC, Enterococcus faecalis (Enterococcus faecalis): * (no inhibition at 64 μg/ml); Range of MIC, Staphylococcus aureus (Staphylococcus aureus): * (no inhibition at 64 μg/ml); Range of MIC, Micrococcus luteus (Micrococcus luteus): * (no inhibition at 64 μg/ml)
C1CCNCC1.C1CCNCC1.COc1ccc(/C=C\c2cc(I)c(OC)c(I)c2)cc1OP(=O)(O)O [W]	0.041 µg/mL	0.070 µg/mL	0.025 µg/mL	0.33 µg/mL	>1 µg/mL	0.025 µg/mL							
COC(=O)C(N)Cc1c[nH]c2ccccc12.COC(=O)C(N)Cc1c[nH]c2ccccc12.COc1ccc(C=Cc2cc(I)c(OC)c(I)c2)cc1OP(=O)(O)O [Y]	0.086 µg/mL	0.22 µg/mL	0.026 µg/mL	0.37 µg/mL	>1 µg/mL	0.033 µg/mL							
sodium combretastatin A-4 phosphate [Compound 1b, reference compound]							0.036 µg/mL	0.034 µg/mL	0.029 µg/mL				
Rubidium 3-bromo-4,4′,5-trimetboxy-Z-stilbene 3′-O-phosphate [Compound 19e]							0.023 µg/mL	2.6 µg/mL	0.041 µg/mL	0.043 µg/mL	0.042 µg/mL	0.56 µg/mL	
Lithium 3-bromo-4,4′,5-trbnethoxy-Z-stilbene 3′-O-phosphate [Compound 19b]							0.0030 µg/mL	0.11 µg/mL	0.0026 µg/mL	0.0039 µg/mL	0.0066 µg/mL	0.13 µg/mL	
Sodium 3-bromo-4,4′,-5-trimethoxy-Z-stilbene 3′-O-phosphate [Compound 19a]							0.0034 µg/mL	0.23 µg/mL	0.0028 µg/mL	0.0041 µg/mL	0.0046 µg/mL	0.093 µg/mL	
Magnesium 3-bromg-4,4′,5-trimethoxy-Z-stilbene 3′-O-phosphate [Compound 19g]							0.0053 µg/mL	0.27 µg/mL	0.0039 µg/mL	0.0045 µg/mL	0.0045 µg/mL	0.074 µg/mL	
C1COCCN1.C1COCCN1.COc1ccc(/C=C\c2cc(I)c(OC)c(I)c2)cc1OP(=O)(O)O [V]	0.054 µg/mL	0.066 µg/mL	0.028 µg/mL	0.35 µg/mL	>1 µg/mL	0.033 µg/mL							
Calcium 3-bromo-4,4′,5-trimethoxy-Z-stilbene 3′-O-phosphate [Compound 19f]							0.0022 µg/mL	0.37 µg/mL	0.0068 µg/mL	0.0022 µg/mL	0.0063 µg/mL	<0.001 µg/mL	
COc1ccc(/C=C\c2cc(I)c(OC)c(I)c2)cc1OP(=O)(O)O.NC(CO)(CO)CO.NC(CO)(CO)CO [Z]	0.040 µg/mL	0.047 µg/mL	0.021 µg/mL	0.33 µg/mL	0.94 µg/mL	0.025 µg/mL							
Cesium 3-bromo-4,4′,5-trimethoiy-phenyl-Z-stilbene 3′-O-phosphate [Compound 19d]							0.0064 µg/mL	0.48 µg/mL	0.0066 µg/mL	0.0044 µg/mL	0.0079 µg/mL	0.15 µg/mL	
Potassium 3-bromo-4,4′,5-trimethoxy-Z-stilbene 3′-O-phosphate [Compound 19c]							0.0032 µg/mL	0.24 µg/mL	0.0029 µg/mL	0.0035 µg/mL	0.0028 µg/mL	0.20 µg/mL	

Reference: patent US20070167412A1, “HALOCOMBSTATINS AND METHODS OF SYNTHESIS THEREOF” (ARIZONA BOARD OF REGENTS, priority 2003, published 2007)
